Test results from patent US11944688B2, “Biologically active compounds” (SUTURA THERAPEUTICS LTD, priority 2015, dated 2024).
Positions of bridges follow the written chain, without caps; N, C: chain ends. Non-standard residues stand in square brackets, D forms with d. No end group written: not given here. {FITC} = fluorescein isothiocyanate label; S5 = C=CCCC[C@](C)(N)C(=O)O; {NH2} = amine group

Legend:
U2OS cells = experiment: Delivery of fluorescently labelled PMO into U2OS cells, fluorescence microscopy; format: cell-based, human; details: 0.5-10 μM, 4 hours, without transfection reagent
Experimental: The biologically active compound was a PMO with a sequence:
(an antisense reagent targeted to exon 23 of the mouse dystrophin gene, that causes the exclusion of exon 23 during mRNA splicing maturation); the bi-functional linker was a PEGylated SMCC; and the StaP was RKF-S5-RLF-S5 (SEQ ID NO: 57). This configuration of DCCPM is depicted as PMO-CP8M in the subsequent figs; unconjugated PMO acts as a control. All compounds were added to U2OS cells maintained in culture, without transfection reagent for 4 hours;
U2OS cells (Human osteosarcoma) were cultured in high glucose DMEM supplemented with 10% foetal calf serum (Sigma, UK) at 37° C. under an 8% CO2/92% air atmosphere.
(§1) U2OS cells were incubated with PMO or PMO-CP8M at increasing concentration (0.5 μM, 1.0 μM, 5.0 μM and 10 μM) with […] transfection reagent; H2K mdx mouse myoblasts were incubated with PMO or PMO-CP8M at 5.0 μM: HEK293T cells were incubated with CP8M (1.0 μM, 10 μM and 100 μM) and PMO, PMO-CP8M-NC, PMO-C8M at 1.0 μM. Levels of fluorescence was quantified at 494 nm to determine relative entry of respective compounds by microscopic or flow cytometry methodologies.

HEK293T cells = experiment: Uptake into HEK293T cells by flow cytometry; format: cell-based, human; details: 4 hours
Experimental: FIG. 11 is the analysis of PMO uptake into HEK293T cells by flow cytometry. Cells were incubated without PMO or with 1 μM PMO, 1 μM PMO-C8M or 1 μM PMO-CP8M-NC (all fluorescein-labelled) at 37° C. for 4 hours. Fluorescence was measured after washing the cells with PBS.
HEK293T cells (Human embryonic kidney) were cultured in high glucose DMEM supplemented with 10% foetal calf serum (Sigma, UK) at 37° C. under an 8% CO2/92% air atmosphere.
as §1
Uptake of fluorescently-labelled PMO was determined by flow cytometry using an Accuri C6 flow cytometer. PMO-transfected cells were released with trypsin, washed in PBS and kept on ice before analysis. Cell fluorescence in single live cells was determined using FlowJo software after appropriate gating. Untreated cells were used to establish gating settings for the determination of the % fluorescein-positive cells.

H2K mdx mouse myoblasts = experiment: Delivery of fluorescently labelled PMO into H2K mdx myoblasts, fluorescence microscopy; format: cell-based; details: 5 μM, without transfection reagent
Experimental: (§2) H2K mdx mouse myoblasts were cultured at 33° C. under a 8% CO2/92% air atmosphere in high-glucose DMEM supplemented with 20% foetal calf serum, 0.5% chicken embryo extract (PAA laboratories Ltd, Yeovil, UK), and 20 units/ml γ-interferon (Roche applied science, Penzberg, Germany). Cells were then treated with trypsin and plated at 8×10^4/cm^2 in 24-well plates coated with 0.1 mg/ml ECM gel (Sigma). H2K mdx cells were transfected 24 h after seeding with treatment in a final volume of 0.2 ml of normal growth media. Following 4 hours of transfection, the PMO or PMO-SAP was removed and replaced with DMEM supplemented with 5% horse serum. Fluorescence and RNA extraction was performed 48 hours post transfection.
as §1

[1] = tested on: exon 23 of the mouse dystrophin gene; experiment: Exon 23 exclusion in H2K mdx cells, nested RT-PCR; format: cell-based; details: 5 μM, RT-PCR 901 bp full length / 688 bp exon 23 excluded
Experimental: 24 hours after incubation with PMO-CP8M or PMO, H2K mdx cells were recovered and RNA isolated. The RNA was reversed transcribed and an amplification between exon 20 and 26 of the mouse dystrophin gene, followed by a nested amplification between exon 20 and 26 was performed to yield a full length product of 901 bp fragment if exon 23 is present or 688 bp fragment if exon 23 is excluded;
as §2
Total RNA was isolated from H2K mdx mouse myoblasts cells (RNeasy, Qiagen, UK). […]

dystrophin [2] = experiment: Dystrophin immunostaining of Tibialis anterior after intramuscular injection in mdx mice; format: in vivo; details: single intramuscular 2.2 nmol, 7 days post-administration, n=4
Experimental: Muscles were recovered 7 day post administration;
All dose are given in respect of the molarity of PMO;
(§3) mdx mice, with access to chow and water ad libitum, were used in all experiments. All experiments were carried out in the Animal unit, School of Biological Science, University of Reading, Reading, UK according to procedures authorized by the UK Home Office. Mice were killed by CO2 inhalation or cervical dislocation at desired time points, and muscles and other tissues were snap-frozen in liquid nitrogen-cooled isopentane and stored at −80° C.
(§4) Intramuscular administrations: Tibialis anterior muscles of mdx mice were injected with either 2.2 nmol PMO or 2.2 nmol PMO-CP8M under isoflurane anaesthesia. […]
(§5) For skeletal muscle, heart and brain, […] cryosections were cut and dystrophin protein was detected using rabbit polyclonal antibody to dystrophin (ab15277; Abcam, Cambridge, UK). […] For liver, […] cryosections were dried and embedded in fluorescence-compatible mounting medium (Dako), and general fluorescence was assessed microscopically at 494 nm.

dystrophin [3] = experiment: Dystrophin immunostaining of heart muscle after intraperitoneal administration in mdx mice; format: in vivo
Source text: FIG. 18a is of mdx mice following a single intraperitoneal injection of 1 μmol/kg PMO-CP8M or 1 μmol/kg PMO. Muscles were recovered 7 days post administration;
FIG. 18b is following multiple intraperitoneal injections—total 7.6 μmol/kg PMO-CP8M or 7.6 μmol/kg PMO. Muscles were recovered 14 days post administration;
FIG. 18c is following multiple intraperitoneal injections—total 10.9 μmol/kg PMO-CP8M or 10.9 μmol/kg PMO;
FIG. 18d is a graphical representation of the number of cardiac muscle fibre being positive for an immuno-cytochemical staining for dystrophin following a multiple intraperitoneal injections—total 7.6 μmol/kg PMO-CP8M or 7.6 μmol/kg PMO; and
FIG. 18e is a graphical representation of the number of cardiac muscle fibre being positive for an immuno-cytochemical staining for dystrophin following multiple intraperitoneal injections—total 10.9 μmol/kg PMO-CP8M or 10.9 μmol/kg PMO. All dose are given in respect of the molarity of PMO [* denotes non fluorescent labelled PMO]. Hearts were recovered 14 days post administration;
Hearts were recovered 14 days post administration;
as §3, §4, §5

dystrophin [4] = experiment: Dystrophin immunostaining of cerebellum after systemic administration in mdx mice; format: in vivo; details: single 1 μmol/kg intravenous, without fluorescent label, 7 days, n=1 per group
Experimental: All dose are given in respect of the molarity of PMO [* denotes non fluorescent labelled PMO]. Cerebella were recovered 7 days post administration; and
as §3, §4, §5

## PMO: PMO 5′GGCCAAACCTCGGCTTACCTGAAAT3′ targeted to exon 23 of mouse dystrophin gene; 5′ amine, 3′ FITC label; unconjugated control (all phosphorodiamidate morpholino (PMO), 5' {NH2}, 3' {FITC})
U2OS cells
  fluorescence signal (cell entry): only a background fluorescence signal
HEK293T cells; HEK293T, 1 μM, 37° C.
  cell entry of fluorescein-labelled PMO: refractory to cell entry
H2K mdx mouse myoblasts
  muscle cell entry: refractory to muscle cell entry
[1]
  exclusion of exon 23 from the dystrophin transcript: lack of exon exclusion
Dystrophin [2]
  percentage of dystrophin re-expression: 762.25
Dystrophin [3]; intraperitoneal total 7.6 μmol/kg over 4 days, without fluorescent label, 2 weeks post-administration, n=4, mean±SEM
  dystrophin-positive heart muscle fibres, 7.6 μmol/kg: 57±17 fibres
Dystrophin [3]; intraperitoneal total 10.9 μmol/kg over 2 days, n=4, mean±SEM
  dystrophin-positive heart muscle fibres, 10.9 μmol/kg: 33±8 fibres
Dystrophin [3]; single intraperitoneal 1 μmol/kg, 7 days, n=1 per group
  dystrophin-positive heart muscle fibres, single low dose: not
Dystrophin [4]
  dystrophin expression in Purkinje cells of cerebellum: No dystrophin expression was observed

## CP8M: CPP sequence RKF-S5-RLF-S5 (SEQ ID NO: 57) with PEGylated SMCC as BFL (RKF[S5]RLF[S5]-NH2; staple 4-8; also: PEGylated SMCC as BFL, attachment not given here)
HEK293T cells; HEK293T, 1.0, 10 and 100 μM, without transfection reagent
  cellular entry of FITC-labelled CP8M charge variants: dose dependent increase
